According to patent publication US6706733B2, “Quinolinone derivative formulation and its production method” (Dainippon Ink and Chemicals, Inc., priority 1999, dated 2004):

What was measured:
[1] = Absorption test in rats (plasma concentration after oral administration); assay type: in vivo, male SD rats; details: for Cmax (maximum plasma concentration): 100 mg/kg single oral administration by gastric tube, suspended in 0.5% aqueous methyl cellulose, plasma by HPLC; for Cmax (maximum plasma concentration) / AUC (area under the plasma concentration vs. time curve): fasted male SD rats; for AUC (area under the plasma concentration vs. time curve): 100 mg/kg single oral administration, trapezoidal equation plus elimination rate constant; for absorption as compared with the α-form crystals: rats, oral 100 mg/kg, regardless of whether crushed or not
Experimental: A comparison of absorption into bodies of rats was conducted for each of the crystal forms and their crushed products of the quinolinone derivative represented with chemical formula (I). Furthermore, each of the crystal forms of the quinolinone derivative represented with chemical formula (I) were crushed using an automated agate mortar.
The following provides an explanation of the test method.
100 mg/kg of each sample were administered orally in a single administration using a gastric tube to 3 male SD rats (age 6 weeks) fasted for 16 hours. The samples were administered after suspending in 0.5% aqueous methyl cellulose solution and preparing to a concentration of […]. Following administration, blood samples were collected over time from the tail vein using heparin-treated glass tubes, and the quinolinone derivative concentrations of the resulting plasma were assayed by HPLC.
The maximum Plasma concentration (Cmax) and area under the plasma concentration vs. time curve (AUC) were determined from the assayed values of the quinolinone derivative at each blood sampling time.
Furthermore, Cmax was determined using measured values, while AUC was determined by calculating according to a trapezoidal equation until the time of measurement, and using the elimination rate constant after that time. The Cmax and AUC of each crystal form of the quinolinone derivative represented with chemical formula (I) are described as comparative examples.

[2] = Photostability test (6 months under direct sunlight, HPLC content); assay type: physicochemical; details: room temperature; for stability with respect to light compared among crystal forms: 6 months direct sunlight; for Residual rate of quinolinone derivative: transparent sealed container, nitrogen, direct sunlight
Experimental: 0.5 g of each of the crystal forms of the quinolinone derivative represented with chemical formula (I) were filled into a transparent and sealed container in a nitrogen atmosphere, and were stored for 6 months under direct sunlight at room temperature.
The content of each crystal form of the quinolinone derivative represented with chemical formula (I) was assayed over time by HPLC followed by a comparison of stability.

[3] = storage period 0 days (100% prior to storage)

Cmax (maximum plasma concentration) [1] [ng/mL]	AUC (area under the plasma concentration vs. time curve) [1] [µg·h/mL]	absorption as compared with the α-form crystals [1]	stability with respect to light compared among crystal forms [2]	Residual rate of quinolinone derivative [2, 3] [%]	Residual rate of quinolinone derivative ([2]; storage period 1 month) [%]	Residual rate of quinolinone derivative ([2]; storage period 6 months) [%]	Residual rate of quinolinone derivative ([2]; storage period 15 days) [%]	SMILES
38000	325	superior absorption	relatively stable	100	96.5	84.1	98.9	CCCCCCCCOc1c(O)c2ccc(NC(=O)/C=C/c3cc(OC)c(O)c(OC)c3)cc2n(C)c1=O [γ-form crystals]
65000	575							CCCCCCCCOc1c(O)c2ccc(NC(=O)/C=C/c3cc(OC)c(O)c(OC)c3)cc2n(C)c1=O [Crushed γ-form crystals]
63000	597							CCCCCCCCOc1c(O)c2ccc(NC(=O)/C=C/c3cc(OC)c(O)c(OC)c3)cc2n(C)c1=O [Crushed δ-form crystals]

More lines, now with the values behind:

SMILES	Cmax (maximum plasma concentration) [1] [ng/mL]	AUC (area under the plasma concentration vs. time curve) [1] [µg·h/mL]	absorption as compared with the α-form crystals [1]	stability with respect to light compared among crystal forms [2]	Residual rate of quinolinone derivative [2, 3] [%]	Residual rate of quinolinone derivative ([2]; storage period 1 month) [%]	Residual rate of quinolinone derivative ([2]; storage period 6 months) [%]	Residual rate of quinolinone derivative ([2]; storage period 15 days) [%]
CCCCCCCCOc1c(O)c2ccc(NC(=O)/C=C/c3cc(OC)c(O)c(OC)c3)cc2n(C)c1=O [Crushed α-form crystals]	33000	253						
CCCCCCCCOc1c(O)c2ccc(NC(=O)/C=C/c3cc(OC)c(O)c(OC)c3)cc2n(C)c1=O [Crushed β-form crystals]	67000	586						
CCCCCCCCOc1c(O)c2ccc(NC(=O)/C=C/c3cc(OC)c(O)c(OC)c3)cc2n(C)c1=O [δ-form crystals]	51000	512	superior absorption	extremely unstable	100	91.4	57.3	96.2
CCCCCCCCOc1c(O)c2ccc(NC(=O)/C=C/c3cc(OC)c(O)c(OC)c3)cc2n(C)c1=O [β-form crystals]	41000	375	superior absorption	relatively stable	100	96.8	84.5	98.7
CCCCCCCCOc1c(O)c2ccc(NC(=O)/C=C/c3cc(OC)c(O)c(OC)c3)cc2n(C)c1=O [α-form crystals]	10000	73		relatively stable	100	97.2	85.1	99.1
